From ChEMBL document CHEMBL1154503, “Calmodulin inhibitors from the fungus Emericella sp” (Bioorg Med Chem, 2009)

Experiments:
Calmodulin-1 [1] = target: T1, Calmodulin-1 (Homo sapiens, UniProt P0DP23); assay: Inhibition of recombinant calmodulin mediated bovine brain PDE1 activation assessed as effect on inorganic phosphate release by spectrophotometry
Calmodulin-1 [2] = target: T1, Calmodulin-1; assay: Inhibition of recombinant calmodulin mediated bovine brain PDE1 activation assessed as effect on inorganic phosphate release using variable calmodulin level by spectrophotometry

SMILES	IC50 (Calmodulin-1 [1])	Ki (Calmodulin-1 [2])
C=C(C)[C@H]1COc2c(C)cc3oc4c(C[C@H](Cl)C(C)(C)O)ccc(O)c4c(=O)c3c2[C@@H]1O	9.59 µM	
C=C(C)[C@H]1COc2c(C)cc3oc4c([C@H](OC)[C@@H]5OC5(C)C)ccc(O)c4c(=O)c3c2[C@@H]1O	5.54 µM	25.4 µM
C=C(C)[C@H]1COc2c(C)cc3oc4c(CC=C(C)C)ccc(O)c4c(=O)c3c2[C@@H]1O [SHAMIXANTHONE]	29.2 µM	
C=C(C)[C@H]1COc2c(C)cc3oc4c(C[C@H](O)C(C)(C)O)ccc(O)c4c(=O)c3c2[C@@H]1O [TAJIXANTHONE HYDRATE]	5.62 µM	13.9 µM
